{
  "source": "ChEMBL document CHEMBL1125312",
  "about": "“Highly potent, orally active diester macrocyclic human renin inhibitors” (J Med Chem, 1992)",
  "key": {"[1]": {"system": "Rattus norvegicus", "experiment": "Compound was evaluated for the percentage of feces excretion of radioactivity, by male Sprague-Dawley rats after oral administration of compound dose (1 mg/kg) at 0-24 hr", "type": "ADME, organism-based", "conditions": "in vivo"}, "[2]": {"system": "Rattus norvegicus", "experiment": "Compound was evaluated for the percentage of feces excretion of radioactivity, by male Sprague-Dawley rats after oral administration of compound dose (1 mg/kg) at 24-48 hr", "type": "ADME, organism-based", "conditions": "in vivo"}, "[3]": {"system": "Rattus norvegicus", "experiment": "Compound was evaluated for the percentage of feces excretion of radioactivity, by male Sprague-Dawley rats after intravenous administration of compound dose (1 mg/kg) at 0-24 hr", "type": "ADME, organism-based", "conditions": "in vivo"}, "[4]": {"system": "Rattus norvegicus", "experiment": "Compound was evaluated for the percentage of feces excretion of radioactivity, by male Sprague-Dawley rats after intravenous administration of compound dose (1 mg/kg) at 24-48 hr", "type": "ADME, organism-based", "conditions": "in vivo"}, "[5]": {"system": "Rattus norvegicus", "experiment": "Compound was evaluated for the percentage of urine excretion of radioactivity, by male Sprague-Dawley rats after oral administration of compound dose (1 mg/kg) at 0-24 hr", "type": "ADME, organism-based", "conditions": "in vivo"}, "[6]": {"system": "Rattus norvegicus", "experiment": "Compound was evaluated for the percentage of urine excretion of radioactivity, by male Sprague-Dawley rats after oral administration of compound dose (1 mg/kg) at 24-48 hr", "type": "ADME, organism-based", "conditions": "in vivo"}, "[7]": {"system": "Rattus norvegicus", "experiment": "Compound was evaluated for the percentage of urine excretion of radioactivity, by male Sprague-Dawley rats after oral administration of compound dose (1 mg/kg) at 48-72 hr", "type": "ADME, organism-based", "conditions": "in vivo"}, "[8]": {"experiment": "Cumulative dose excreted after intraduodenal administration at 0-0.5 hours in rats", "type": "ADME, organism-based", "conditions": "rat, in vivo"}, "[9]": {"experiment": "Cumulative dose excreted after intraduodenal administration at 0.5-1.0 hours in rats", "type": "ADME, organism-based", "conditions": "rat, in vivo"}, "[10]": {"experiment": "Cumulative dose excreted after intraduodenal administration at 1.0-1.5 hours in rats", "type": "ADME, organism-based", "conditions": "rat, in vivo"}, "[11]": {"experiment": "Cumulative dose excreted after intraduodenal administration at 1.5-2.0 hours in rats", "type": "ADME, organism-based", "conditions": "rat, in vivo"}, "[12]": {"experiment": "Cumulative dose excreted after intraduodenal administration at 2-3 hours in rats", "type": "ADME, organism-based", "conditions": "rat, in vivo"}, "[13]": {"system": "Rattus norvegicus", "experiment": "Cumulative dose excreted after intraduodenal administration at 4-6 hours in rats", "type": "ADME, organism-based", "conditions": "in vivo, other"}, "[14]": {"experiment": "Cumulative dose excreted after intraduodenal administration at 6-8 hours in rats", "type": "ADME, organism-based", "conditions": "rat, in vivo"}, "[15]": {"system": "Rattus norvegicus", "experiment": "Cumulative dose excreted after intraduodenal administration at 8-24 hours in rats", "type": "ADME, organism-based", "conditions": "in vivo, other"}, "[16]": {"system": "Rattus norvegicus", "experiment": "Cumulative dose excreted after intravenous administration at 0-0.5 hours in rats", "type": "ADME, organism-based", "conditions": "in vivo"}, "[17]": {"experiment": "Cumulative dose excreted after intravenous administration at 0.5-1 hours in rats", "type": "ADME, organism-based", "conditions": "rat, in vivo"}, "[18]": {"experiment": "Cumulative dose excreted after intravenous administration at 1.0-1.5 hours in rats", "type": "ADME, organism-based", "conditions": "rat, in vivo"}, "[19]": {"system": "Rattus norvegicus", "experiment": "Cumulative dose excreted after intravenous administration at 1.5-2 hours in rats", "type": "ADME, organism-based", "conditions": "in vivo"}, "[20]": {"system": "Rattus norvegicus", "experiment": "Cumulative dose excreted after intravenous administration at 2-3 hours in rats", "type": "ADME, organism-based", "conditions": "in vivo"}, "[21]": {"system": "Rattus norvegicus", "experiment": "Cumulative dose excreted after intravenous administration at 3-4 hours in rats", "type": "ADME, organism-based", "conditions": "in vivo"}, "[22]": {"system": "Rattus norvegicus", "experiment": "Cumulative dose excreted after intravenous administration at 4-6 hours in rats", "type": "ADME, organism-based", "conditions": "in vivo"}, "[23]": {"system": "Rattus norvegicus", "experiment": "Cumulative dose excreted after intravenous administration at 6-8 hours in rats", "type": "ADME, organism-based", "conditions": "in vivo"}, "[24]": {"system": "Rattus norvegicus", "experiment": "Cumulative dose excreted after intravenous administration at 8-24 hours in rats", "type": "ADME, organism-based", "conditions": "in vivo"}, "[25]": {"system": "Rattus norvegicus", "experiment": "Compound was evaluated for the percentage of feces excretion of radioactivity, by male Sprague-Dawley rats after oral administration of compound dose (1 mg/kg) at 48-72 hr", "type": "ADME, organism-based", "conditions": "in vivo"}, "[26]": {"system": "Rattus norvegicus", "experiment": "Compound was evaluated for the percentage of urine excretion of radioactivity, by male Sprague-Dawley rats after intravenous administration of compound dose (1 mg/kg) at 0-24 hr", "type": "ADME, organism-based", "conditions": "in vivo"}, "[27]": {"system": "Rattus norvegicus", "experiment": "Compound was evaluated for the percentage of urine excretion of radioactivity, by male Sprague-Dawley rats after intravenous administration of compound dose (1 mg/kg) at 24-48 hr", "type": "ADME, organism-based", "conditions": "in vivo"}, "[28]": {"target": "T1, Renin (Homo sapiens, UniProt P00797)", "T1 sequence (P00797 whole entry)": "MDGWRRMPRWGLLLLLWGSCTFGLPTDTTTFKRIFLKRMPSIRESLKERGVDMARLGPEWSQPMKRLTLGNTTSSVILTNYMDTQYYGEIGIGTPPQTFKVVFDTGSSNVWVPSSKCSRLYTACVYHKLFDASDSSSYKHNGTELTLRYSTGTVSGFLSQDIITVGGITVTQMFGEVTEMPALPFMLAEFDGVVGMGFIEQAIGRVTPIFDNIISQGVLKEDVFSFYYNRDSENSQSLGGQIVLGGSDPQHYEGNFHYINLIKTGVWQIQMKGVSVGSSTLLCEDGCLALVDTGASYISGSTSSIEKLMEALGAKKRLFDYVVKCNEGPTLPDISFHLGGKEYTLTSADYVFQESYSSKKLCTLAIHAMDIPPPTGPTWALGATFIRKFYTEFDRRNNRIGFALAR", "experiment": "Inhibitory activity against human renin inhibition (at pH 7.4)"}, "[29]": {"experiment": "Cumulative dose excreted after intraduodenal administration at 3-4 hours in rats", "type": "ADME, organism-based", "conditions": "rat, in vivo"}},
  "data": [
    {"compound": "O=C1CCC[C@H](CN2CCOCC2)OC(=O)[C@H](O)[C@H](CC2CCCCC2)NC(=O)[C@@H](NC(=O)[C@H](Cc2ccccc2)NC2CN3CCC2CC3)CO1", "note": "(some centres undefined)", "values": [
      {"measurement": "Dose excreted", "setting": "[1]", "value": 81.7, "unit": "%"},
      {"measurement": "Dose excreted", "setting": "[2]", "value": 3.3, "unit": "%"},
      {"measurement": "Dose excreted", "setting": "[3]", "value": 43.5, "unit": "%"},
      {"measurement": "Dose excreted", "setting": "[4]", "value": 3.5, "unit": "%"},
      {"measurement": "Dose excreted", "setting": "[5]", "value": 3.1, "unit": "%"},
      {"measurement": "Dose excreted", "setting": "[6]", "value": 0.7, "unit": "%"},
      {"measurement": "Dose excreted", "setting": "[7]", "value": 0.3, "unit": "%"},
      {"measurement": "Dose excreted", "setting": "[8]", "value": 2.4, "unit": "%"},
      {"measurement": "Dose excreted", "setting": "[9]", "value": 3.3, "unit": "%"},
      {"measurement": "Dose excreted", "setting": "[10]", "value": 3.6, "unit": "%"},
      {"measurement": "Dose excreted", "setting": "[11]", "value": 3.9, "unit": "%"},
      {"measurement": "Dose excreted", "setting": "[12]", "value": 4, "unit": "%"},
      {"measurement": "Dose excreted", "setting": "[13]", "value": 4.3, "unit": "%"},
      {"measurement": "Dose excreted", "setting": "[14]", "value": 4.4, "unit": "%"},
      {"measurement": "Dose excreted", "setting": "[15]", "value": 4.7, "unit": "%"},
      {"measurement": "Dose excreted", "setting": "[16]", "value": 35.7, "unit": "%"},
      {"measurement": "Dose excreted", "setting": "[17]", "value": 42.7, "unit": "%"},
      {"measurement": "Dose excreted", "setting": "[18]", "value": 44.6, "unit": "%"},
      {"measurement": "Dose excreted", "setting": "[19]", "value": 45.5, "unit": "%"},
      {"measurement": "Dose excreted", "setting": "[20]", "value": 46.4, "unit": "%"},
      {"measurement": "Dose excreted", "setting": "[21]", "value": 46.9, "unit": "%"},
      {"measurement": "Dose excreted", "setting": "[22]", "value": 47.5, "unit": "%"},
      {"measurement": "Dose excreted", "setting": "[23]", "value": 47.9, "unit": "%"},
      {"measurement": "Dose excreted", "setting": "[24]", "value": 48.7, "unit": "%"},
      {"measurement": "Dose excreted", "setting": "[25]", "value": 0.2, "unit": "%"},
      {"measurement": "Dose excreted", "setting": "[26]", "value": 18.5, "unit": "%"},
      {"measurement": "Dose excreted", "setting": "[27]", "value": 0.7, "unit": "%"},
      {"measurement": "IC50", "setting": "[28]", "value": 1.3, "unit": "nM"},
      {"measurement": "Dose excreted", "setting": "[29]", "value": 4.2, "unit": "%"}
    ]}
  ]
}
